How the values were obtained:
[1] = biological target: T1, HCV polymerase (NS5B) type 1a (Hepatitis C virus genotype 1a, UniProt P26664); test: Assay of enzyme (HCV polymerase) inhibitory activity, type 1a enzyme; type: biochemical, HCV type 1a (cloned from the blood of patients); conditions: HCV polymerase inhibitory activity IC50, 1a, type 1a enzyme
T1 construct: made in house; host or cells: Escherichia coli (by the 'similar method' of the 1b enzyme)
In short: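 Patient-derived type 1a NS5B (C-terminal 47-aa deletion, His-tagged, E. coli-expressed) at 1.5 μg/ml was reacted with 5 μg/ml 3′UTR-containing substrate RNA, 50 μM ATP/GTP/CTP, 2 μM UTP plus [3H]UTP, pH 7.5, 25° C for 60 min. TCA-precipitated RNA radioactivity was counted; IC50 from ± compound.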

[2] = biological target: T2, HCV polymerase (NS5B) type 1b (Hepatitis C virus genotype 1b, UniProt P26663); test: Assay of enzyme (HCV polymerase) inhibitory activity, type 1b enzyme; type: biochemical, HCV BK strain (type 1b); conditions: HCV polymerase inhibitory activity IC50, 1b, type 1b enzyme
T2 construct: a region encoding NS5B (J Virol 1991 March, 65(3), 1105-13, 544 amino acids after deletion of 47 amino acids on the C-terminal); 6xHis (C); made in house; host or cells: Escherichia coli
In short: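 NS5B from HCV BK strain (type 1b), C-terminal 47 aa deleted, C-terminal His6-tagged, E. coli-expressed, 0.5 μg/ml, with ~450 nt substrate RNA carrying the 3′ UTR (polyU, 3′X) at 5 μg/ml. Incubation 60 min at 25 °C with 50 μM ATP/GTP/CTP, 2 μM UTP plus [3H]UTP, pH 7.5 Tris.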

SMILES	IC50 [1] [nM]	IC50 [2] [nM]
O=C(NCc1ccc(OC(F)(F)F)cc1)[C@H]1CN(c2cnc3cnccc3n2)CCN1S(=O)(=O)c1ccc(Br)s1 [Example 775, (R)-1-(5-bromo-thiophene-2-sulfonyl)-4-pyrido[3,4-b]pyrazin-2-yl-piperazine-2-carboxylic acid 4-trifluoromethoxy-benzylamide]	< 100	< 100
O=C(NCc1ccc(OC(F)(F)F)cc1)[C@H]1CN(c2nc3cccnc3s2)CCN1S(=O)(=O)c1ccc(OC(F)(F)F)cc1 [Example 776, (R)-4-thiazolo[5,4-b]pyridin-2-yl-1-(4-trifluoromethoxy-benzenesulfonyl)-piperazine-2-carboxylic acid 4-trifluoromethoxy-benzylamide]	< 100	< 100
CCCc1ccc(CNC(=O)[C@H]2CN(c3cnc4cnccc4n3)CCN2S(=O)(=O)c2ccc(I)cc2)cc1 [Example 777, (R)-1-(4-iodo-benzenesulfonyl)-4-pyrido[3,4-b]pyrazin-2-yl-piperazine-2-carboxylic acid 4-propyl-benzylamide]	< 100	< 100
CCCc1ccc(CNC(=O)[C@H]2CN(c3cnc4cnccc4n3)CCN2S(=O)(=O)c2ccc(-c3cccc(O)c3)cc2)cc1 [Example 778, (R)-1-(3′-hydroxy-biphenyl-4-sulfonyl)-4-pyrido[3,4-b]pyrazin-2-yl-piperazine-2-carboxylic acid 4-propyl-benzylamide]	< 100	< 100
CCCc1ccc(CNC(=O)[C@H]2CN(c3cnc4cnccc4n3)CCN2S(=O)(=O)c2ccc(-c3cccc(OCC(=O)O)c3)cc2)cc1 [Example 779, {4′-[(R)-2-(4-propyl-benzylcarbamoyl)-4-pyrido[3,4-b]pyrazin-2-yl-piperazine-1-sulfonyl]-biphenyl-3-yloxy}-acetic acid]	< 100	< 100
O=C(O)c1cccc2nc(N3CCN(S(=O)(=O)c4ccc(OC(F)(F)F)cc4)[C@@H](C(=O)NCc4ccc(OC(F)(F)F)cc4)C3)cnc12 [Example 780, 2-[(R)-4-(4-trifluoromethoxy-benzenesulfonyl)-3-(4-trifluoromethoxy-benzylcarbamoyl)-piperazin-1-yl]-quinoxaline-5-carboxylic acid]	100 to 1000	< 100
O=C(O)c1cccc2ncc(N3CCN(S(=O)(=O)c4ccc(OC(F)(F)F)cc4)[C@@H](C(=O)NCc4ccc(OC(F)(F)F)cc4)C3)nc12 [Example 781, 3-[(R)-4-(4-trifluoromethoxy-benzenesulfonyl)-3-(4-trifluoromethoxy-benzylcarbamoyl)-piperazin-1-yl]-quinoxaline-5-carboxylic acid]	< 100	< 100
O=C(NCc1ccc(OC(F)(F)F)cc1)[C@H]1CN(c2ccc3nccnc3c2)CCN1S(=O)(=O)c1ccc(OC(F)(F)F)cc1 [Example 782, (R)-4-quinoxalin-6-yl-1-(4-trifluoromethoxy-benzenesulfonyl)-piperazine-2-carboxylic acid 4-trifluoromethoxy-benzylamide]	< 100	< 100
O=C(NCc1ccc(OC(F)(F)F)cc1)[C@H]1CNCCN1S(=O)(=O)c1ccc(OC(F)(F)F)cc1 [Example 783, (R)-1-(4-trifluoromethoxy-benzenesulfonyl)-piperazine-2-carboxylic acid 4-trifluoromethoxy-benzylamide]	> 1000	> 1000
O=C(NCc1ccc(OC(F)(F)F)cc1)[C@H]1CN(c2nc3nc[nH]c(=O)c3s2)CCN1S(=O)(=O)c1ccc(OC(F)(F)F)cc1 [Example 784, (R)-4-(7-oxo-6,7-dihydro-thiazolo[4,5-d]pyrimidin-2-yl)-1-(4-trifluoromethoxy-benzenesulfonyl)-piperazine-2-carboxylic acid 4-trifluoromethoxy-benzylamide]	< 100	< 100
O=C(NCc1ccc(OC(F)(F)F)cc1)[C@H]1CN(c2nc3nn[nH]c(=O)c3s2)CCN1S(=O)(=O)c1ccc(OC(F)(F)F)cc1 [Example 785, (R)-4-(4-oxo-3,4-dihydro-thiazolo[4,5-d][1,2,3]triazin-6-yl)-1-(4-trifluoromethoxy-benzenesulfonyl)-piperazine-2-carboxylic acid 4-trifluoromethoxy-benzylamide]	< 100	< 100
CCc1ccc(S(=O)(=O)N2CCN(c3cnc(C(=O)O)cn3)C[C@@H]2C(=O)NCc2ccc(OC(F)(F)F)cc2)cc1 [Example 786, (R)-4-(4-ethyl-benzenesulfonyl)-3-(4-trifluoromethoxy-benzylcarbamoyl)-3,4,5,6-tetrahydro-2H-[1,2′]bipyrazinyl-5′-carboxylic acid]	< 100	< 100
O=C(O)c1cnc(N2CCN(S(=O)(=O)c3ccc(Br)s3)[C@@H](C(=O)NCc3ccc(OC(F)(F)F)cc3)C2)cn1 [Example 787, (R)-4-(5-bromo-thiophene-2-sulfonyl)-3-(4-trifluoromethoxy-benzylcarbamoyl)-3,4,5,6-tetrahydro-2H-[1,2′]bipyrazinyl-5′-carboxylic acid]	< 100	< 100
O=C(O)c1cnc(N2CCN(S(=O)(=O)c3ccc(N4CCCC4)cc3)[C@@H](C(=O)NCc3ccc(OC(F)(F)F)cc3)C2)cn1 [Example 788, (R)-4-(4-pyrrolidin-1-yl-benzenesulfonyl)-3-(4-trifluoromethoxy-benzylcarbamoyl)-3,4,5,6-tetrahydro-2H-[1,2′]bipyrazinyl-5′-carboxylic acid]	< 100	< 100
O=C(NCc1ccc(OC(F)(F)F)cc1)[C@H]1CN(c2cnc3cncnc3n2)CCN1S(=O)(=O)c1ccc(Br)s1 [Example 789, (R)-1-(5-bromo-thiophene-2-sulfonyl)-4-pteridin-7-yl-piperazine-2-carboxylic acid 4-trifluoromethoxy-benzylamide]	< 100	< 100
O=C(NCc1ccc(OC(F)(F)F)cc1)[C@H]1CN(c2cnc3cncnc3n2)CCN1S(=O)(=O)c1ccc([N+](=O)[O-])cc1 [Example 790, (R)-1-(4-nitro-benzenesulfonyl)-4-pteridin-7-yl-piperazine-2-carboxylic acid 4-trifluoromethoxy-benzylamide]	< 100	< 100
O=C(NCc1ccc(OC(F)(F)F)cc1)[C@H]1CN(c2cnc3cncnc3n2)CCN1S(=O)(=O)c1ccc(C(F)(F)F)cc1 [Example 791, (R)-4-pteridin-7-yl-1-(4-trifluoromethyl-benzenesulfonyl)-piperazine-2-carboxylic acid 4-trifluoromethoxy-benzylamide]	< 100	< 100
O=C(NCc1ccc(OC(F)(F)F)cc1)[C@H]1CN(c2cnc3cncnc3n2)CCN1S(=O)(=O)c1ccc(Cl)s1 [Example 792, (R)-1-(5-chloro-thiophene-2-sulfonyl)-4-pteridin-7-yl-piperazine-2-carboxylic acid 4-trifluoromethoxy-benzylamide]	< 100	< 100
O=C(NCc1ccc(OC(F)(F)F)cc1)[C@H]1CN(c2ccc3ncccc3n2)CCN1S(=O)(=O)c1ccc(OC(F)(F)F)cc1 [Example 793, (R)-4-[1,5]naphthyridin-2-yl-1-(4-trifluoromethoxy-benzenesulfonyl)-piperazine-2-carboxylic acid 4-trifluoromethoxy-benzylamide]	< 100	< 100
O=C(NCc1ccc(OC(F)(F)F)cc1)[C@H]1CN(c2nc3nccnc3s2)CCN1S(=O)(=O)c1ccc(OC(F)(F)F)cc1 [Example 794, (R)-4-thiazolo[4,5-b]pyrazin-2-yl-1-(4-trifluoromethoxy-benzenesulfonyl)-piperazine-2-carboxylic acid 4-trifluoromethoxy-benzylamide]	< 100	< 100
O=C(NCc1c(F)c(F)c(C(F)(F)F)c(F)c1F)[C@H]1CN(c2cnc3cncnc3n2)CCN1S(=O)(=O)c1ccc(OC(F)(F)F)cc1 [Example 795, (R)-4-pteridin-7-yl-1-(4-trifluoromethoxy-benzenesulfonyl)-piperazine-2-carboxylic acid 2,3,5,6-tetrafluoro-4-trifluoromethyl-benzylamide]	< 100	< 100
CCc1ccc(S(=O)(=O)N2CCN(c3cnc(CO)cn3)C[C@@H]2C(=O)NCc2ccc(OC(F)(F)F)cc2)cc1 [Example 796, (R)-4-(4-ethyl-benzenesulfonyl)-5′-hydroxymethyl-3,4,5,6-tetrahydro-2H-[1,2′]bipyrazinyl-3-carboxylic acid 4-trifluoromethoxy-benzylamide]	< 100	< 100
O=C(NCc1c(Cl)cc(Cl)cc1Cl)[C@H]1CN(c2cnc3cncnc3n2)CCN1S(=O)(=O)c1ccc(OC(F)(F)F)cc1 [Example 797, (R)-4-pteridin-7-yl-1-(4-trifluoromethoxy-benzenesulfonyl)-piperazine-2-carboxylic acid 2,4,6-trichloro-benzylamide]	< 100	< 100
O=C(NCc1ccc(OC(F)(F)F)cc1)[C@H]1CN(c2cnc3cnc(C(F)(F)F)nc3n2)CCN1S(=O)(=O)c1ccc(OC(F)(F)F)cc1 [Example 798, (R)-1-(4-trifluoromethoxy-benzenesulfonyl)-4-(2-trifluoromethyl-pteridin-7-yl)-piperazine-2-carboxylic acid 4-trifluoromethoxy-benzylamide]	100 to 1000	< 100

Source: patent US8017612B2, “Piperazine compound and use thereof as a HCV polymerase inhibitor” (priority 2006, dated 2011)
